{"source": "patent US5981551A", "about": "“2,5-diimino-3a,6a-diaryl-1,2,3,3a,4,5,6,6a-octahydroim idazo[4,5-d]imidazoles which are effective as G-CSF mimetics” (SmithKline Beecham Corporation, priority 1998, dated 1999)", "note": "Where a name gives a salt, the structure may show the parent alone."}
{"target": "T1, G-CSF receptor (Mus musculus, UniProt P40223)", "T1 construct": "NSF60 cells express endogenous G-CSF receptors; endogenous in cells; host or cells: NFS60 cells", "T1 sequence (P40223 26-837)": "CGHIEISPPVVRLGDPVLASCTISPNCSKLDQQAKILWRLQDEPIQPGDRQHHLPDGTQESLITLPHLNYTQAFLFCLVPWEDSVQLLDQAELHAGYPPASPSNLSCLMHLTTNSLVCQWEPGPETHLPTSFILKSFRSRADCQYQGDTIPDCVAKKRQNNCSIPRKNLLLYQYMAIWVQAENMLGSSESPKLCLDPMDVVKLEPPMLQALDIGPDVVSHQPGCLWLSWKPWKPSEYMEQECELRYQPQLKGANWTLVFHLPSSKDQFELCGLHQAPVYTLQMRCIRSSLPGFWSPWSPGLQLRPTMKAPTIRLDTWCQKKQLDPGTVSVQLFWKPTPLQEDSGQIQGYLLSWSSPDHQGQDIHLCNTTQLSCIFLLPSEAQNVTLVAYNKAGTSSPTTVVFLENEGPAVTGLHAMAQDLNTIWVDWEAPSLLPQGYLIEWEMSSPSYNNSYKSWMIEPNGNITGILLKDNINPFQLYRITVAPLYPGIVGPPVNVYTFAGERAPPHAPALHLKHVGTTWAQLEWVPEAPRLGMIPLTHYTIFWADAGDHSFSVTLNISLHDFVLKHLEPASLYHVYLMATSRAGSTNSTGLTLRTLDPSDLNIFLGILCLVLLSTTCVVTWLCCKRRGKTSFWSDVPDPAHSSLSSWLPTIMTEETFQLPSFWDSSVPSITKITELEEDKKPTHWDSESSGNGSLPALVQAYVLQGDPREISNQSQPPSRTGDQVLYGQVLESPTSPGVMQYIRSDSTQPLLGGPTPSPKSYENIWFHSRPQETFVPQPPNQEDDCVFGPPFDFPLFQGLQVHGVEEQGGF", "assay": "Luciferase assay in NFS60 cells (G-CSF mimetic potency)", "format": "cell-based", "settings": "concentration range of 1 to 32 uM", "source_text": "Luciferase Assay […] Natl. Acad. Sci., USA 92: 3041-3045 (1995) by substituting NFS60 cells for the HepG2 cells utilized therein. The NFS60 cells (Holmes, et al., Proc. Natl. Acad. Sci. USA 82: 6687-6691 (1985)) were substituted for the HepG2 cells in the Lamb assay because the NSF60 cells express endogenous G-CSF receptors closely matching the pattern of STAT (signal transducers and activators of transcription) activation observed in primary murine and human bone marrow cells."}
{"molecule": "FC(F)(F)c1ccc(C23NC(=Nc4nc5ccccc5[nH]4)NC2(c2ccc(C(F)(F)F)cc2)NC(=Nc2nc4ccccc4[nH]2)N3)cc1", "note": "(stereo not drawn) [Example 34, 2,5-bis[2-benzimidazolylimino]-3a,6a-bis(4-trifluoromethylphenyl)-1,2,3,3a,4,5,6,6a-octahydroimidazo[4,5-d]imidazole]", "activation, % of control, in the luciferase assay": "above 150 % of control"}
{"molecule": "Brc1ccc(C23NC(=Nc4nc5ccccc5[nH]4)NC2(c2ccc(Br)cc2)NC(=Nc2nc4ccccc4[nH]2)N3)cc1", "note": "(stereo not drawn) [Example 33, 2,5-bis[2-benzimidazolylimino]-3a,6a-bis(4-bromophenyl)-1,2,3,3a,4,5,6,6a-octahydroimidazo[4,5-d]imidazole]", "activation, % of control, in the luciferase assay": "≤ 150 % of control"}
{"molecule": "Cc1ccc(C23NC(=Nc4nc5ccccc5n4C)NC2(c2ccc(C)cc2)NC(=Nc2nc4ccccc4n2C)N3)cc1", "note": "(stereo not drawn) [Example 39, 2,5-bis[(1-methyl-2-benzimidazolyl)imino]-3a,6a-bis(4-methylphenyl)-1,2,3,3a,4,5,6,6a-octahydromidazo[4,5-d]imidazole]", "activation, % of control, in the luciferase assay": "above 150 % of control"}
{"molecule": "Fc1ccc2nc(N=C3NC4(c5ccccn5)NC(=Nc5nc6ccccc6[nH]5)NC4(c4ccccn4)N3)[nH]c2c1.O=C(O)C(F)(F)F.O=C(O)C(F)(F)F", "note": "(stereo not drawn) [Example 19, 5-(2-benzimidazolylimino)-2-[(5-fluoro-2-benzimidazolyl)imino]-3a,6a-bis(2-pyridyl)-1,2,3,3a,4,5,6,6a-octahydroimidazo[4,5-d]imidazole bis(trifluoroacetate) salt]", "activation, % of control, in the luciferase assay": "≤ 150 % of control"}
{"molecule": "c1coc(C23NC(=Nc4nc5ccccc5[nH]4)NC2(c2ccco2)NC(=Nc2nc4ccccc4[nH]2)N3)c1", "note": "(stereo not drawn) [Example 3, 2,5-bis[2-benzimidazolylimino]-3a,6a-bis(2-furyl)-1,2,3,3a,4,5,6,6a-bis(2-pyridyl)octahydroimidazo[4.5-d]imidazole]", "activation, % of control, in the luciferase assay": "≤ 150 % of control"}
{"molecule": "Ic1ccc2nc(N=C3NC4(c5ccccn5)NC(=Nc5nc6ccccc6[nH]5)NC4(c4ccccn4)N3)[nH]c2c1", "note": "(stereo not drawn) [Example 32b, 5-[2-benzimidazolylimino]-2-[(5-iodo-2-benzimidazolyl)imino]-3a,6a-bis(2-pyridyl)-1,2,2a,4,5,6,6a-octahydroimidazo[4,5-d]imidazole bis(trifluoroacetate) salt]", "activation, % of control, in the luciferase assay": "above 150 % of control"}
{"molecule": "c1ccc(C23NC(=Nc4nc5ccccc5[nH]4)NC2(c2ccccn2)NC(=Nc2nc4ccccc4[nH]2)N3)nc1", "note": "(stereo not drawn) [Example 1]", "activation, % of control, in the luciferase assay": "above 150 % of control"}
{"molecule": "c1ccc(C23NC(=Nc4nc5ccccc5o4)NC2(c2ccccn2)NC(=Nc2nc4ccccc4o2)N3)nc1", "note": "(stereo not drawn) [Example 14, 2,5-bis[2-benzoxazolylimino]-3a,6a-bis(2-pyridyl)-1,2,3a,4,5,6,6a-octahydroimidazo[4,5-d]imidazole]", "activation, % of control, in the luciferase assay": "≤ 150 % of control"}
{"molecule": "Ic1ccc2nc(N=C3NC4(c5ccccn5)NC(=Nc5nc6ccc(I)cc6[nH]5)NC4(c4ccccn4)N3)[nH]c2c1.O=C(O)C(F)(F)F.O=C(O)C(F)(F)F", "note": "(stereo not drawn) [Example 32a, 2,5-bis[(5-iodo-2-benzimidazolyl)imino]-3a,6a-bis(2-pyridyl)-1,2,3,3a,4,5,6,6a-octahydroimidazo[4,5-d]imidazole bis(trifluoroacetate) salt]", "activation, % of control, in the luciferase assay": "≤ 150 % of control"}
{"molecule": "Clc1cccc(C23NC(=Nc4nc5ccccc5[nH]4)NC2(c2ccccc2)NC(=Nc2nc4ccccc4[nH]2)N3)c1", "note": "(stereo not drawn) [Example 35, 2,5-bis[2-benzimidazolylimino]-3a-(3-chlorophenyl)-6a-phenyl-1,2,3,3a,4,5,6,6a-octahydroimidazo[4,5-d]imidazole]", "activation, % of control, in the luciferase assay": "above 150 % of control"}
{"molecule": "Clc1ccccc1C12NC(=Nc3nc4ccccc4[nH]3)NC1(c1ccccc1)NC(=Nc1nc3ccccc3[nH]1)N2", "note": "(stereo not drawn) [Example 36, 2,5-bis[2-benzimidazolylimino]-3a-(2-chlorophenyl)-6a-phenyl-1,2,3,3a,4,5,6,6a-octahydroimidazo[4,5-d]imidazole]", "activation, % of control, in the luciferase assay": "≤ 150 % of control"}
{"molecule": "c1ccc(C23NC(=Nc4nc5ccccc5[nH]4)NC2(c2ccccc2)NC(=Nc2nc4ccccc4[nH]2)N3)cc1", "note": "(stereo not drawn) [Example 2]", "activation, % of control, in the luciferase assay": "above 150 % of control"}
{"molecule": "c1ccc(C23NC(=Nc4nc5ccccc5[nH]4)NC2(c2ccccn2)NC(=Nc2nc4ccccc4s2)N3)nc1", "note": "(stereo not drawn) [Example 30, 5-[2-benzimidazolylimino]-2-[2-benzothiazolylimino]-3a,6a-bis(2-pyridyl)-1,2,3a,4,5,6,6a-octahydroimidazo[4,5-d]imidazole bis(trifluoroacetate)]", "activation, % of control, in the luciferase assay": "above 150 % of control"}
{"molecule": "Cc1ccc2nc(N=C3NC4(c5ccccc5)NC(=Nc5nc6ccccc6[nH]5)NC4(c4ccccn4)N3)[nH]c2c1.O=C(O)C(F)(F)F.O=C(O)C(F)(F)F", "note": "(stereo not drawn) [Example 37, 5-(2-benzimidazolylimino)-2-[(5-methyl-2-benzimidazolyl)imino]-3a-(2-pyridyl)-6a-phenyl-1,2,3,3a,4,5,6,6a-octahydroimidazo[4,5-d]imidazole bis(trifluoroacetate) salt]", "activation, % of control, in the luciferase assay": "above 150 % of control"}
{"molecule": "Fc1ccc2nc(N=C3NC4(c5ccccn5)NC(=Nc5nc6ccc(F)cc6[nH]5)NC4(c4ccccn4)N3)[nH]c2c1", "note": "(stereo not drawn) [Example 20, 2,5-bis[(5-fluoro-2-benzimidazolyl)imino]-3a,6a-bis(2-pyridyl-1,2,3,3a4,5,6,6a-octahydroimidazo[4,5-d]imidazolebis(trifluoroacetate) salt]", "activation, % of control, in the luciferase assay": "above 150 % of control"}
{"molecule": "Cc1cc2nc(N=C3NC4(c5ccccn5)NC(=Nc5nc6cc(C)c(C)cc6[nH]5)NC4(c4ccccn4)N3)[nH]c2cc1C", "note": "(stereo not drawn) [Example 25, 2,5-bis[(5.6-dimethyl-2-benzimidazolyl)imino]-3a,6a-bis(2-pyridyl)-1,2,2a,4,5,6,6a-octahydroimidazo[4,5-d]imidazole bis(trifluoroacetate) salt]", "activation, % of control, in the luciferase assay": "above 150 % of control"}
{"molecule": "Cn1c(N=C2NC3(c4ccc(Br)cc4)NC(=Nc4nc5ccccc5n4C)NC3(c3ccc(Br)cc3)N2)nc2ccccc21", "note": "(stereo not drawn) [Example 40, 2,5-bis[(1-methyl-2-benzimidazolyl)imino]-3a,6a-bis(4-bromophenyl)-1,2,3,3a,4,5,6,6a-octahydromidazo[4,5-d]imidazole]", "activation, % of control, in the luciferase assay": "≤ 150 % of control"}
{"molecule": "Cn1c(N=C2NC3(c4ccccc4)NC(=Nc4nc5ccccc5n4C)NC3(c3ccccc3)N2)nc2ccccc21", "note": "(stereo not drawn) [Example 38, 2,5-bis[(1-methyl-2-benzimidazolyl)imino]-3a,6a-diphenyl-1,2,3,3a,4,5,6,6a-octahydromidazo[4,5-d]imidazole]", "activation, % of control, in the luciferase assay": "≤ 150 % of control"}
{"molecule": "O=C(O)c1ccc2nc(N=C3NC4(c5ccccn5)NC(=Nc5nc6ccccc6[nH]5)NC4(c4ccccn4)N3)[nH]c2c1", "note": "(stereo not drawn) [Example 31, 5-[(2-benzimidazolylimino]1-2-[(5-carboxy-2-benzimidazolyl)imino]-3a,6a-bis(2-pyridyl)-1,2,3,3a,4,5,6,6a-octahydroimidazo[4,5-d]imidazolebis(trifluoroacetate) salt]", "activation, % of control, in the luciferase assay": "≤ 150 % of control"}
{"molecule": "Cc1cc2nc(N=C3NC4(c5ccccn5)NC(=Nc5nc6ccccc6[nH]5)NC4(c4ccccn4)N3)[nH]c2cc1C", "note": "(stereo not drawn) [Example 26, 5-[2-benzimidazolylimino]-2-[(5,6-dimethyl-2-benzimidazolyl)imino]-3a,6a-bis(2-pyridyl)-1,2,2a,4,5,6,6a-octahydroimidazo[4,5-d]imidazole bis(trifluoroacetate) salt]", "activation, % of control, in the luciferase assay": "above 150 % of control"}
{"molecule": "Cc1csc(N=C2NC3(c4ccccn4)NC(=Nc4nc(C)cs4)NC3(c3ccccn3)N2)n1", "note": "(stereo not drawn) [Example 13, 2,5-bis[(4-methyl-2-thiazolyl)imino]-3a,6a-bis(2-pyridyl)-1,2,3,3a,4,5,6a-octahydroimidazo[4,5-d]imidazole]", "activation, % of control, in the luciferase assay": "above 150 % of control"}
